Test results published in patent US11672762B2, “Onapristone extended-release compositions and methods” (Context Biopharma Inc., priority 2014, dated 2023).

Tests used:
[1] = human, in vivo
Description: PK results for onapristone are available for 52 patients from the a first study (ARN-AR18-CT-101) (Table 1). Variability for onapristone PK is moderate and greater for the IR versus the ER formulation. Onapristone Cmax and AUC values for the ER form are proportional to administered dose (FIGS. 1 and 2). Based on observed mean AUC values, oral bioavailability for the ER versus the IR formulation is approximately 50% (FIG. 24). A later Tmax value for the ER form results in somewhat lower dose-corrected Cmax values for the ER form compared to the IR form. Steady state is attained before day 8 with a mean t % of 7.5 hrs.
Table 1 compares descriptive statistics for the primary onapristone pharmacokinetic exposure parameters following single oral doses from 10 to 50 mg of extended-release onapristone compared to that from 100 mg immediate-release onapristone (Study ARN-AR18-CT-101). […]
Blood samples were collected at 0, 1, 2, 3, 4, 6, 8, 12 (before next BID dose), and 24 (before next dose—for 100 mg IR only) hours post-ONA, as well as hour 0 on days 8, 29 and 57 (just before drug intake). Plasma concentrations of ONA, mono-demethylated onapristone (M1) and other metabolites in plasma and urine were analyzed with a validated ultra-performance liquid chromatography with tandem mass spectrometry detection (UPLC-MS/MS) assay. […]

[2] = original immediate release (IR) formulation; cited from earlier work
[3] = tested on: gonadotrophin (LH and FSH) secretion; settings: immediate release doses of 1 and 10 mg; cited from earlier work

Steady state attained [1]: < 8 days
mean t % [1]: 7.5 h
SMILES: CN(C)c1ccc([C@H]2C[C@]3(C)[C@@H](CC[C@]3(O)CCCO)[C@@H]3CCC4=CC(=O)CCC4=C32)cc1 [onapristone, (8S,11R,13R,14S,17S)-11-[4-(dimethylamino)phenyl]-17-hydroxy-17-(3-hydroxypropyl)-13-methyl-1,2,6,7,8,11,12,14,15,16-decahydrocyclopenta[a]phenanthren-3-one]
tolerability [2]: well-tolerated with the exception of abnormalities in liver function tests
effect on gonadotrophin (LH, FSH) secretion [3]: dose-dependent effect of onapristone on suppression of gonadotrophin
